Earlier results in patent US9452147B2, “Lipolytic methods” (Neothetics, Inc., priority 2005, dated 2016).

What was measured:
[1] = system: thigh circumference in women; details: subcutaneous injections three to five times per week in multiple locations over the thighs
[2] = relative to albuterol 5, a short acting hydrophilic beta agonist

Structure (SMILES) | thigh circumference in women [1] | times more lipophilic than albuterol 5 [2]
COC(=O)[C@@H]1[C@H]2C[C@H]3c4[nH]c5ccccc5c4CCN3C[C@@H]2CC[C@@H]1O [yohimbine] | reduce the thigh circumference | –
CC(C)NCC(O)c1ccc(O)c(O)c1 (stereo not drawn) [isoproterenol] | reduce the thigh circumference | –
OCc1cc(C(O)CNCCCCCCOCCCCc2ccccc2)ccc1O (racemic) [salmeterol 1, ±2-(hydroxymethyl)-4-[1-hydroxy-2-[6-(4-phenylbutoxyl)hexylamino]ethyl]-phenol] | – | at least 10,000 times
